Where no end group is shown, it is not given here.
Assays:
[1] = system: Candida albicans ATCC 10231; assay: protective activity against opportunistic infections in immunosuppressed mice; assay type: in vivo; settings: female ddY mice infected with Candida albicans 24 hours after last treatment
Description: The compounds of formula I were tested for protective activity against opportunistic infections in immunosuppressed mice. Female ddY mice (6 weeks old) weighing about 25 g were pretreated daily for eight days with 5-fluorouracil (5-FU) (25 mg/kg/day, i.p.) and with thymosin α1or with compounds of formula I (i.p.) at varying dosages. The mice were then infected with Candida albicans ATCC 10231 (1×10^5 cells or more) at 24 hours after the last treatment. One control group was administered 5-FU and saline solution and a second control group received neither 5-FU nor a thymic polypeptide prior to infection with Candida albicans.

[2] = isoelectric point by preparative isoelectric focusing; assay type: physicochemical
Description: It is preferred that the compound of formula II be separated conventionally from Thymosin Fraction 5 using preparative isoelectric focusing, with the proteins recovered therefrom being purified by HPLC. By such a procedure, for example, 1.2 grams of Thymosin Fraction 5 provided 16 mg of thymosin α1, 16 mg of thymosin β4 and 1 mg of the compound of formula II. The isoelectric point for the compound of formula II was pH 4.62.
Any reverse phase hydrophobic resin may be employed in a conventional manner in the HPLC isolation. Among such resins there are included, for example, a hydrocarbon (C8 to C18) on any inert matrix such as silica gel, glass, polysaccharides and the like, which matrix is inert to the eluting agent being employed. The preferred resin is a straight chain C18 hydrocarbon bonded to silica gel or glass beads. […]
A sample of thymosin Fraction 5 (1.2 g) was dissolved in 100 ml of 2% ampholine for separation in the pH range 4-6 and filtered through a 0.45 μm molecular pore filter. […] The focused gel was cut with a grid into 30 sections, each of which was eluted on a small column with 5 ml of H2 O. The pH of eluate was determined at 0° C. […] Fractions (0.7 ml) were collected every 2 min and aliquots (5 μl of a 1:25 dilution) of each aliquot analyzed by direct injection into the borate buffer line of the fluorescamine detector, because the automatic column monitoring was off-scale.

[3] = 4 μg/kg/day i.p. daily for eight days with 5-FU 25 mg/kg/day i.p.
[4] = 40 μg/kg/day i.p. daily for eight days with 5-FU 25 mg/kg/day i.p.
[5] = 0.4 μg/kg/day i.p. daily for eight days with 5-FU 25 mg/kg/day i.p.

Substance	Survivors at Day 8 [1, 3]	Survivors at Day 15 [1, 3]	Survivors at Day 8 [1, 4]	Survivors at Day 15 [1, 4]	Survivors at Day 8 [1, 5]	Survivors at Day 15 [1, 5]	isoelectric point [2]
Thymosin α1: acidic peptide containing 28 amino acid residues isolated from Thymosin Fraction 5, U.S. Pat. No. 4,079,127 (SDAAVDTSSEITTKDLKEKKEVVEEAEN; ends and bridges not checked; UniProt P01252 2-29, looked up)	7/10	6/10	7/10	7/10			
Thymosin β4: peptide isolated from Thymosin Fraction 5 containing 44 amino acid residues	5/10	5/10	1/10	1/10	7/10	6/10	
Thymosin β8: polypeptide isolated from calf thymus Fraction 5, 4,518 daltons, 39 amino acid residues, NH2-terminus acetyl alanine (ADKPDLGEINSFDKAKLKKTETQEKNTLPTKETIEQEKQ; thymosin beta-8 N-terminal acetyl; UniProt P21752 2-40, looked up, fragment)							4.62 pH
Thymosin β9: polypeptide from fresh frozen calf thymus, identical to thymosin β8 plus --Ala--LysOH at the COOH-terminus, 4,717 daltons, 41 amino acids (ADKPDLGEINSFDKAKLKKTETQEKNTLPTKETIEQEKQAK; not fully specified; Thymosin beta-9; UniProt P21752 2-42, looked up)							5.14 pH

Reference: patent US4389343A, “Immunopotentiating peptides from thymus” (Hoffmann-La Roche Inc., priority 1981, dated 1983)
